Results published in patent US9402849B2, “Composition for moderating alcohol metabolism and for reducing the risk of alcohol induced diseases” (Tima Foundation, priority 2005, dated 2016).
Where “and” joins values, the source holds several entries; their conditions need not be identical. Equal values may be shown once.

How the values were obtained:
[1] = test system: RPMI4788 cells; assay: Alcohol enhanced pulmonary metastasis of RPMI4788 cells in nude mice (nodules on lung surface); format: in vivo
Description: Ingredients of Supplement except Coenzyme Q10 were purchased from Sigma Aldrich Japan (Tokyo, Japan). Ten gram of dextrose, 1.0 gram of Vitamin C, 1.5 gram of L-glutamine, 500 mg of cysteine, 40 mg of riboflavin, 100 mg of succinic acid, 100 mg of fumaric acid, and 10 mg of niacin were dissolved in 100 ml of distilled water (Supplement Solution). One hundred mg of Coenzyme Q10 (Jarrow Formulas, Los Angels, Calif., USA) was dissolved in 14 ml of sesame oil.
Male, 6-week-old nude mice of BALB/cA-jcl-nu/nu class were purchased (Clea Japan Inc., Shizuoka, Japan) and allowed to acclimate for one week prior to the study. During the experiment the mice were maintained at a temperature of 23° C., 50% humidity and a specific-pathogen-free (SPF) condition.
RPM14788 cells derived from human colorectal cancer generate pulmonary metastasis in nude mouse (Moore G E & Koike A (1964), Cancer January, 17: 11-20; Kondo H. et al. (1987), Jpn J Cancer Res (Gann) 78, 12: 1400-1408). The cell line was subcultured in tissue culture flasks with culture medium of RPMI1640 solution (Nikken Biomedical Laboratory, Kyoto, Japan) supplemented with 10% Fetal Bovine Serum. (FBS) (Hycione Laboratories Inc., Logan, Utah) at 37° C., in an atmosphere of 100% humidity, 5% CO2 and 95% air. Following isolation of the cultured cells by 0.02% EDTA, a cell suspension was prepared using PBS of 0.01M; trypan blue staining confirmed cell viability over 98%.
To produce lung metastases, nude mice were injected cell suspension of 5×10^4/0.1 ml into tail vein. Twenty-eight days after the injection, all metastatic nodules on the lung surface were counted. The lung was fixed in 10% neutral formaldehyde and embedded in paraffin. Sections were stained with Hematoxylin-Eosin and examined histologically.
For testing the supplement, 320 μl of supplement solution and 50 μl of Co-Q10 dissolved sesame oil per mouse were administrated to the stomach by oral metal tube. For assaying the effects of Supplement+EtOH, one hour after the supplement administration, 7.0 ml/kg of ethanol were injected into the peritoneal cavity. Then 1 hour after the ethanol injection, 5×10^4/100 μl of RPM14788 cells were injected into the tail vein. The nude mice were sacrificed 28 days after the cell injection and the metastatic nodules on the lung surface were counted.

[2] = test system: YAC-1 cells; assay: NK cytotoxic activity of nude mouse splenocytes, short-term 51Cr-release assay; format: in vivo; conditions: for NK activity, % Control: EtOH versus control nude mice
Description: A short-term ^51Cr-release assay was used to determine the natural killer (NK) cytotoxic activity. Mice were divided in following 3 groups; control, ethanol administration, and Supplement and ethanol administration. Twenty, four hours after the ethanol administration, splenocytes of the nude mouse were separated as single cell suspension. Target YAC-1 cells (1×10^7) were labeled by incubation with 200 μCi of ^51Cr for 2 hours at 37C. After being washed and then incubated for 2 hours at 37° C., the cells were supplemented in RPMI1640 medium. 20 μl of the labeled target cells and 100 μl of effector cells were mixed into a 96-well microliter plate (Sumitomo Bakelite Co., Ltd., Tokyo, Japan) at various effector/target cell ratios. After 4 hours of incubation, the plates were centrifuged and the radioactivity of the supernatant was measured by a gamma-counter. The percent of cytotoxicity was calculated as (experimental group release−spontaneous release/total release−spontaneous release). Statistical analysis of the results was conducted by t^2 test, and […] was defined as the level of significance.

CCO [ETOH, ethanol]
Number of Metastatic nodules on the lung surface, Average ([1]; ETOH + 4788, 16 mice): 42.25
Number of Metastatic nodules on the lung surface, Total ([1]; ETOH + 4788, 16 mice): 676
Number of Metastatic nodules on the lung surface ([1]; ETOH + 4788, single mouse, ethanol 7.0 ml/kg i.p. 1 h before cells, 28 days): 75 and 58 and 69 and 62 and 18 and 19 (2×) and 21 (2×) and 24 and 20 (2×) and 48 and 70 and 64 and 68
Total metastatic nodules minus 4788 ([1]; ETOH + 4788, total minus control total): 251
Enhancement of metastatic potential of 4788 cell line ([1]; Ethanol + 4788 versus control): approximately 60%
NK activity ([2]; EtOH): 11.20%
NK activity, % Control ([2]; listed as EtOH): 45.5%
NK activity, % Control ([2]; listed as Ethanol): 45.5%
Average cont (51Cr release) ([2]; EtOH, splenocytes 24 h after ethanol): 568.6
